{"source": "patent US20260000735A1", "about": "“ENHANCED DIFFERENTIATION OF BETA CELLS” (Vertex Pharmaceuticals Incorporated, priority 2019, published 2026)", "type_in_all_cases": "cell-based", "key": {"[1]": {"system": "SC-β cells (Nkx6.1/Isl1 double positive cells)", "assay": "Percent SC-β cells (Nkx6.1/Isl1 double positive) by FACS", "conditions": "for SC-β cell percent in stage 6: added to the culture medium during days 1-10 of stage 6, JJKK 048 1 μM, KML 29 10 μM, NF 1819 10 μM", "description": "(§1) In this instance cryopreserved stage 5 individual cells were thawed and cultured in a modified stage 5 (S5) medium during the first 4 days of Stage 6 (S6d1-d4) […], with subsequent culture of the cells in Stage 6 (S6) medium (see experimental outline in FIG. 2).\n(§2) The effect of supplementing the modified S5 medium used in stage 6 with one or more saturated fatty acid of unsaturated fatty acid was analyzed. The fatty acids analyzed included palmitate (saturated fatty acid), oleic acid (unsaturated fatty acid), linoleic acid (unsaturated fatty acid), and palmitoleic acid (unsaturated fatty acid) (see protocol is outlined in FIG. 20). The fatty acid free HSA+fatty acid were stirred for 1 hour at 37° C.\nMGLL (monoacylglycerol lipase) is a serine hydrolase that catalyzes the conversion of monoacylglycerides to free fatty acids and glycerol. The effect of three highly specific MGLL inhibitors (JJKK 048 (1 μM), KML 29 (10 μM), NF 1819 (10 μM)) on SC-β cell production was analyzed.\nStage 5 insulin-positive endocrine cell clusters were differentiated from stem cells as described herein. The insulin-positive endocrine cell clusters were dissociated such that the majority of the dissociated cells were now individual cells, and the cells were then cryopreserved, and thawed. The thawed individual cells were then differentiated into β cell clusters through a stage 6 differentiation. […] The base medium of MDCB 131 with 0.05% HSA was used for days 5-11 of stage 6 (FIG. 30, FIG. 31)."}, "[2]": {"system": "thawed cryopreserved stage 5 cells", "assay": "Cell recovery / viable cell number in stage 6 culture after thaw of cryopreserved stage 5 cells", "conditions": "inclusion in DS3 media", "quoted_text": "The insulin-positive endocrine progenitor cell clusters were dissociated such that the majority of the dissociated cells were individual cells, and the cells were cryopreserved, and thawed. The thawed cells are then differentiated into β cell clusters through a stage 6 differentiation. The stage 6 culture medium comprises DMEM F12 base with 1% human serum albumin (HSA), and optionally 1.5 μM zinc (“DS2 medium”). […] Thus, whether alteration of the S6 medium could improve recovery was analyzed.\nIn this instance cryopreserved stage 5 individual cells were thawed and cultured in a modified stage 5 (S5) medium during the first 4 days of Stage 6 (S6d1-d4) (approximately 72 hours), with subsequent culture of the cells in Stage 6 (S6) medium (see experimental outline in FIG. 2).\nSeveral factor drop out experiments were conducted to identify the contribution of each factor."}, "SC-islet cell clusters": {"system": "SC-islet cell clusters", "assay": "Cell cluster size, morphology, homogeneity, re-aggregation and stability (microscopy)", "conditions": "day 6 of stage 6 (S6d6), fatty acid supplementation", "description": "as §2\nA select number of metabolites were included in the DS6 medium, including: glutamate, acetate, β hydroxybutarate, L-caratine, taurine, formate, and biotin."}, "SC-β cells / SC-islets": {"system": "SC-β cells / SC-islets", "assay": "Glucose stimulated insulin secretion (GSIS), human C-peptide per 1000 cells", "conditions": "day 10 of stage 6 (S6d10); addition post day 4 of stage 6", "quoted_text": "FIG. 18A is a bar graph showing the glucose stimulated insulin secretion (GSIS) of cells at day 12 of stage 6 (S6d12). GSIS was measured as the level of human C-peptide (pM) per 1000 cells after glucose stimulation. The cells were cultured in stage 6 (S6) medium+1% HSA for days 1-12 of stage 6.\nA range of 2.8 mM and 20 mM glucose was used to stimulate GSIS (See experimental protocol FIG. 13)."}, "SC-β cells": {"system": "SC-β cells", "assay": "Number / recovery / yield of SC-β cells in stage 6", "conditions": "day 10 of stage 6; with 0.5% HSA", "description": "as §1, §2"}}}
{"molecule": "O=C(N1CCC(C(c2ccc3c(c2)OCO3)c2ccc3c(c2)OCO3)CC1)n1cncn1", "note": "[JJKK 048]", "values": [{"measurement": "SC-β cell percent in stage 6", "setting": "[1]", "result": "around 50%"}]}
{"molecule": "O=C(OC(C(F)(F)F)C(F)(F)F)N1CCC(C(O)(c2ccc3c(c2)OCO3)c2ccc3c(c2)OCO3)CC1", "note": "[KML 29]", "values": [{"measurement": "SC-β cell percent in stage 6", "setting": "[1]", "result": "around 50%"}]}
{"molecule": "O=C1[C@H](c2ccc(F)cc2)[C@@H](c2ccc3c(c2)OCO3)N1C1CCN(C(=O)n2cncn2)CC1", "note": "[NF 1819]", "values": [{"measurement": "SC-β cell percent in stage 6", "setting": "[1]", "result": "around 50%"}]}
{"molecule": "O=S(=O)([O-])[O-].[Zn+2]", "note": "[ZnSO4]", "values": [{"measurement": "S6d4 viable cell number", "setting": "[2]", "result": "greatly improves S6d4 viable cell number"}]}
{"molecule": "CCCCC/C=C\\C/C=C\\CCCCCCCC(=O)O", "note": "[linoleic acid]", "values": [{"measurement": "size of the cell clusters", "setting": "SC-islet cell clusters", "result": "enhances the size of the cell clusters"}]}
{"molecule": "CCCCCCCCCCCCCCCC(=O)O", "note": "[palmitate, palmitic acid]", "values": [{"measurement": "percent of SC-β cells (Nkx6.1/Isl1 double positive cells) recovered", "setting": "[1]; fatty acid added to the modified S5 medium, days 1-4 of stage 6", "result": "improved"}, {"measurement": "size of the cell clusters", "setting": "SC-islet cell clusters", "result": "enhances the size of the cell clusters"}, {"measurement": "GSIS", "setting": "SC-β cells / SC-islets", "result": "improves GSIS"}, {"measurement": "total number of SC-β cells recovered", "setting": "SC-β cells", "result": "enhanced the total number of SC-β cells recovered"}]}
